Assay results reported in publication PMC12006963, “Application of Deuterium in an M1 Positive Allosteric Modulator Back-Up Program: The Discovery of VU6045422” (ACS Chemical Neuroscience, 2025).

What was measured:
Experiment in all cases: Eurofins radioligand binding
Calcium Channel N-Type = Calcium Channel N-Type (Rattus norvegicus, UniProt Q02294)
Transporter, GABA = Transporter, GABA (Rattus norvegicus, UniProt P23978)
[1] = system: Glutamate, NMDA, Phencyclidine; parameters: species or system Rat
Adenosine A3 = Adenosine A3 (Homo sapiens, UniProt P0DMS8)
Adenosine A3, sequence (P0DMS8 whole entry): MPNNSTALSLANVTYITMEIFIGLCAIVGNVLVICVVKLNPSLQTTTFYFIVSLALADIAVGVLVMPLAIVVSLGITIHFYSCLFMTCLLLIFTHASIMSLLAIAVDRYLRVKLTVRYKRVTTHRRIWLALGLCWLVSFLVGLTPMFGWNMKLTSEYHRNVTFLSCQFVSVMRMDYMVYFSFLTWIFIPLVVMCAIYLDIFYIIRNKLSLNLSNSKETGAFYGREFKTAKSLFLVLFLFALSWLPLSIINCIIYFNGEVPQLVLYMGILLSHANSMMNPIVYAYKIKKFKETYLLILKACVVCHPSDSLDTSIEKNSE

Calcium Channel N-Type, sequence (Q02294 whole entry): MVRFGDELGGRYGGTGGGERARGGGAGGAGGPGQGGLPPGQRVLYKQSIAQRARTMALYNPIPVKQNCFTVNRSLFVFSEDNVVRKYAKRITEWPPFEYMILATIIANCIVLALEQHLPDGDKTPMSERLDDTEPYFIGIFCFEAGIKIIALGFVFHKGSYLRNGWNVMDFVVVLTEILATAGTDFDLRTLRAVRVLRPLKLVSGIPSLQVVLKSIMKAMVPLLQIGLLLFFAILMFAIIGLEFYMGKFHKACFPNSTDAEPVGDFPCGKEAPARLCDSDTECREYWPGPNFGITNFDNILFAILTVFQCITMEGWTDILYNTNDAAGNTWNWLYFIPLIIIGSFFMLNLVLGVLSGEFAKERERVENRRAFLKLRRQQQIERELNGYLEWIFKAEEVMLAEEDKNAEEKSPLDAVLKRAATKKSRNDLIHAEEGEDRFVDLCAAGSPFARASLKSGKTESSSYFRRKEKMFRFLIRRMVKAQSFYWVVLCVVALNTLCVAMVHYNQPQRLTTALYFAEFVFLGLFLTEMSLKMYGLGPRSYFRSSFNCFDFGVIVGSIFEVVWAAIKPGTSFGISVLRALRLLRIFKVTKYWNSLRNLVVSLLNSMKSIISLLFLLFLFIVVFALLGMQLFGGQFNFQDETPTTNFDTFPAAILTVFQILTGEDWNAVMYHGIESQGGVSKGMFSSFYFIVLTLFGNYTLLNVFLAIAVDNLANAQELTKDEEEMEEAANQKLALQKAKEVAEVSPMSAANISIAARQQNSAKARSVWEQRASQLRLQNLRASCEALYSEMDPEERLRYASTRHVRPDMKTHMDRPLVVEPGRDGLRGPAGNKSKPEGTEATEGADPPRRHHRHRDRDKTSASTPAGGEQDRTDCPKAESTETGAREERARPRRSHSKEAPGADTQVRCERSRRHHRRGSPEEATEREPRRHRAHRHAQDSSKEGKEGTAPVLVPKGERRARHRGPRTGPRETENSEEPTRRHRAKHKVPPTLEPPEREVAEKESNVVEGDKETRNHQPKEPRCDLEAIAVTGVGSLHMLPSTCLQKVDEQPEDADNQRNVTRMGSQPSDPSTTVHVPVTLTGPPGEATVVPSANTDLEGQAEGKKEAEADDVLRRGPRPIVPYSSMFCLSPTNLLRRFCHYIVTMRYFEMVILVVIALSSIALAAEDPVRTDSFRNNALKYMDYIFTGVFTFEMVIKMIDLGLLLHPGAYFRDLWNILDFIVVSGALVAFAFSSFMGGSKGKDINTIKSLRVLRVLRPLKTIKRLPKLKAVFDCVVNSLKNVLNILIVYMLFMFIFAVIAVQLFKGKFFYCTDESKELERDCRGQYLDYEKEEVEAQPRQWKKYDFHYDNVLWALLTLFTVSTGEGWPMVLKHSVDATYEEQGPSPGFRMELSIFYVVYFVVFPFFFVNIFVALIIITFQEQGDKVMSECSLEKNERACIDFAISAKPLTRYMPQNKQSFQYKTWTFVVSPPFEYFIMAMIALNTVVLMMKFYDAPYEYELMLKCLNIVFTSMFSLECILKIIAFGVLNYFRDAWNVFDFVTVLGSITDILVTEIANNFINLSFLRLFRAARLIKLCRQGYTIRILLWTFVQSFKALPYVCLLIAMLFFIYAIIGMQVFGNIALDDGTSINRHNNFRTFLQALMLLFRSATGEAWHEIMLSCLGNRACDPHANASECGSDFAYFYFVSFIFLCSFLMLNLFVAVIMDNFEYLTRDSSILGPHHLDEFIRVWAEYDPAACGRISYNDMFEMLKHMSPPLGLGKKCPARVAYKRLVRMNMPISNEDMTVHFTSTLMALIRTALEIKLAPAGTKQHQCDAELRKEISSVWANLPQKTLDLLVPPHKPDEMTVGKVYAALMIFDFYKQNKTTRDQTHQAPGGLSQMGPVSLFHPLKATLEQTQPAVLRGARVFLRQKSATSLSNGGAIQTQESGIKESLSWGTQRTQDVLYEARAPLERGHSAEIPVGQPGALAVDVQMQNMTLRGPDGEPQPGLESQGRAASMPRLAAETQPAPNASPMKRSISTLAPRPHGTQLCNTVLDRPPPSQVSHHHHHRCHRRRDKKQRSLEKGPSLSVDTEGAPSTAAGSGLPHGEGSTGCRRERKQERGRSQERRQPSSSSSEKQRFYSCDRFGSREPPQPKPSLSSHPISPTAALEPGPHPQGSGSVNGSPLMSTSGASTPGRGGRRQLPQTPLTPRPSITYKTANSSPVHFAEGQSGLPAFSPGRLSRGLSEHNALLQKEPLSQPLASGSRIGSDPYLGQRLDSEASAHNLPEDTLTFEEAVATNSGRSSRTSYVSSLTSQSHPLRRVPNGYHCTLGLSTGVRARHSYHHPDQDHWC

[2H]C1([2H])c2ncccc2C(=O)N1Cc1c(F)cc(-c2cccc3nn(C([2H])([2H])[2H])cc23)cc1F [compound 5]
inhibition at 10 µM (Calcium Channel N-Type): -2% | inhibition at 10 µM (Transporter, GABA): 31% | % Inhibition at 10 µM [1]: -1% | inhibition at 10 µM (Adenosine A3): 12%
